Measurements taken from patent US20240116990A1, “Compositions and Methods of Treatment Using CRRL 191” (Mayo Foundation for Medical Education and Research, priority 2022, published 2024).
Bridge positions count the residues as written; N and C are the ends.

What was measured:
[1] = biological target: recombinant human neprilysin (NEP) (Homo sapiens, UniProt P08473); assay: In vitro neprilysin degradation assay (residual cGMP generation in HEK/GCA cells); conditions: for original bioactivity retained: 37° C.
recombinant human neprilysin (NEP), sequence (P08473 whole entry): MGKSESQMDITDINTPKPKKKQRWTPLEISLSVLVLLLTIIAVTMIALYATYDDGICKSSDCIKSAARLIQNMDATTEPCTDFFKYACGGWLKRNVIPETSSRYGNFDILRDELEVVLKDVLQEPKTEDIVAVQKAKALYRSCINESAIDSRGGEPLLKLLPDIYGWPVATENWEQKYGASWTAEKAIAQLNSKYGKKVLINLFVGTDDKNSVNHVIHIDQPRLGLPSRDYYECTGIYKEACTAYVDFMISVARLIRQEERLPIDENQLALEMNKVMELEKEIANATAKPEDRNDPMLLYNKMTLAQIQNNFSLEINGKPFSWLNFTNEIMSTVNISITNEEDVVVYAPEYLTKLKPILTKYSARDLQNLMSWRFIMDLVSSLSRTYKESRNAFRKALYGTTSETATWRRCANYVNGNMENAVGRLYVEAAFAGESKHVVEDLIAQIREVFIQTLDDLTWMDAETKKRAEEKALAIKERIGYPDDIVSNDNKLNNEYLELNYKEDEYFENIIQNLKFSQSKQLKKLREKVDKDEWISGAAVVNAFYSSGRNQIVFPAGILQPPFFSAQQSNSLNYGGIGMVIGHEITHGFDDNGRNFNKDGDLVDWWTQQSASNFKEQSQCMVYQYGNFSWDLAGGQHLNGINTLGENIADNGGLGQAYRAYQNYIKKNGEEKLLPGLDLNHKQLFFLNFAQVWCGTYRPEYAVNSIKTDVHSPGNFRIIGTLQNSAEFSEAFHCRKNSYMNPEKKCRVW
Protocol: Briefly, 5 μl of 2×10^−5 M peptide is incubated with 5 μl (10 ng/μl) recombinant NEP in 90 μl Tris/0.1% BSA buffer (50 mM Tris-HCl, pH 7.5, 150 mM NaCl, 5 mM MgCl2, 0.1% BSA) at 37° C. for various lengths of time ranging from 15 min to 24 hours. Peptides for the 0-min timepoint are incubated without NEP (buffer only). After incubation for the required length of time (0-min to 24-hour), 100 μl of 0.5 N perchloric acid is added to the reaction solution to inactivate NEP and stop degradation, and 20 μl of 2.5 N NaOH is added to neutralize the solution. The neutralized reaction aliquot is added to HEK/GCA cells and the residual capability of the undegraded peptide (diluted to a final concentration 5.5×10^−8 M) to produce cGMP is measured using the same commercial cGMP ELISA kit (Enzo Life Sciences, Farmingdale, NY) as described in Example 2, following the instructions of the manufacturer.

[2] = biological target: T1, extracellular domain of GC-A recombinant protein (Homo sapiens, UniProt P16066); assay: GC-A binding by surface plasmon resonance (SPR); conditions: SPR binding curves, FIG. 7
T1 construct: The extracellular domain of GC-A recombinant protein with a C-terminal His-tag (MyBioSource, Inc., San Diego, CA); purchased MyBioSource, Inc., San Diego, CA
T1 sequence (P16066 33-473 limits assumed): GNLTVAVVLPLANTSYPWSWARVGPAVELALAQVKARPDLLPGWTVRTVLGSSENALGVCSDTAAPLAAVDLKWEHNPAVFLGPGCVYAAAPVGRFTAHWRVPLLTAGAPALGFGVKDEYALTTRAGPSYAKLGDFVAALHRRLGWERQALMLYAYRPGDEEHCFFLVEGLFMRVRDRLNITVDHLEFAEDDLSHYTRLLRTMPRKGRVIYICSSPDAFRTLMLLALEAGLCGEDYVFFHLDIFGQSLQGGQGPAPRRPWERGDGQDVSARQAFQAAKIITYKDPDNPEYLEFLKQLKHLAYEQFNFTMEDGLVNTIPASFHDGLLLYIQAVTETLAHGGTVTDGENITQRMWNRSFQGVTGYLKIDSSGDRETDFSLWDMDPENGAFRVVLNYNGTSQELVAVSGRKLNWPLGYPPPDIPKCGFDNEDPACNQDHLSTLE
Protocol: Surface plasmon resonance (SPR) measurements are performed at 25° C. on a BI-4500 SPR instrument (Biosensing Instrument Inc., Tempe, AZ). The extracellular domain of GC-A recombinant protein with a C-terminal His-tag (MyBioSource, Inc., San Diego, CA) is immobilized onto a Ni-NTA sensor chip (Biosensing Instrument Inc., Tempe, AZ) using 400 μM nickel sulfate in de-iron water as linker, as instructed by the instrument manual. Then, 40 μg/ml of recombinant GC-A is immobilized on the Ni-NTA sensor chip. […] Data are collected as sensorgrams. Binding kinetics are calculated from sensorgrams using the BI-Data Analysis Program (Biosensing Instrument, Tempe, AZ).

human GC-A = biological target: T2, human GC-A (Homo sapiens, UniProt P16066); assay: cGMP production over 6 hours in HEK/GCA cells; type: cell-based; conditions: 10^−8 M, FIG. 2
T2 construct: host or cells: HEK293
T2 sequence (P16066 33-1061): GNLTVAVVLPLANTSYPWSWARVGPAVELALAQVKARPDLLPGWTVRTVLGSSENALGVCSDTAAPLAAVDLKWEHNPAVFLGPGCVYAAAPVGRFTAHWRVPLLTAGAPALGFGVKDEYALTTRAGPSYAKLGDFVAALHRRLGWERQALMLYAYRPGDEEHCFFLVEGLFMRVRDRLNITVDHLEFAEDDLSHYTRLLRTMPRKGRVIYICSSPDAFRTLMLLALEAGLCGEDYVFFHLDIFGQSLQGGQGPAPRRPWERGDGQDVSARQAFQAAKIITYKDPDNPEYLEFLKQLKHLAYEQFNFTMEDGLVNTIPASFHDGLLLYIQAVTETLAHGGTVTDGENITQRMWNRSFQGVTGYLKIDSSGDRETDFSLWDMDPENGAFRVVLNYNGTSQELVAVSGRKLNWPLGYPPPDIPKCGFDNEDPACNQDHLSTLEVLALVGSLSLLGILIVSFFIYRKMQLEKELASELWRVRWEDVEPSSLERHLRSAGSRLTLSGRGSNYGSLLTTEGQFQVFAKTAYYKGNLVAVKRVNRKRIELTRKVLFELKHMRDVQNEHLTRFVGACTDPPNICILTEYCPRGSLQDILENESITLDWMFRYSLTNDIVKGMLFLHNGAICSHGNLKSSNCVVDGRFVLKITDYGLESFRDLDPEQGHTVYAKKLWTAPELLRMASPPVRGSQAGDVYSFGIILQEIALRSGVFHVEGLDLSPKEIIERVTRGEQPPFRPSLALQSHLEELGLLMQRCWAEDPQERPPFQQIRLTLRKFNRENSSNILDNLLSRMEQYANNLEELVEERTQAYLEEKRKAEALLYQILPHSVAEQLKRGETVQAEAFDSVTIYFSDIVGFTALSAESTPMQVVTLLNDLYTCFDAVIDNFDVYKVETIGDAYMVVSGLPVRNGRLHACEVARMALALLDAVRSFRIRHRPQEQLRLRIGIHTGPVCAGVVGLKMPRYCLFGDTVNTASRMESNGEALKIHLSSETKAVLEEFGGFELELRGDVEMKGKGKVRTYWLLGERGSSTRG
Protocol: HEK293 cells stably transfected with human GC-A (cDNA clones from Origene, Rockville, MD) using Lipofectamine (Invitrogen, Grand Island, NY), are developed. Receptor overexpression is verified with immunofluorescence and western blotting. GC-A-transfected HEK293 (HEK/GCA) cells are maintained in Dulbecco's modified Eagle's medium (DMEM) supplemented with 10% fetal bovine serum (FBS), 100 U/ml penicillin, 100 U/ml streptomycin and 250 μg/ml G418.
Two in vitro cGMP assays are performed. Briefly, HEK/GCA cells are seeded in 48-well plates and cultured overnight to 80-90% confluency. The treatment buffer used in all experiments comprises Hank's Balanced Salt Solution (HBSS), 0.1% bovine serum albumin (BSA), 2 mM HEPES, and 0.5 mM 3-isobutyl-1-methylxanthine (IBMX, a non-specific phosphodiesterase inhibitor) (Sigma, St. Louis, MO).
After treatment, all cells are washed with phosphate buffered solution (PBS) once and lysed with 0.1M HCl.

[3] = tested on: Human cardiomyocytes (HCM); assay: Human cardiomyocyte (HCM) cGMP analysis; type: cell-based
Protocol: Human cardiomyocytes (HCM) are purchased from ScienCell (Catalog #6200) and maintained in Cardiac Myocyte Medium (Cat #6101, ScienCell) containing 10% FBS. An in vitro cGMP assay is performed. Briefly, HCM cells are seeded in 6-well plates and cultured overnight to 80-90% confluency. The treatment buffer used in all experiments comprises Hank's Balanced Salt Solution (HBSS), 0.1% BSA, 2 mM HEPES, and 0.5 mM 3-isobutyl-1-methylxanthine (IBMX, a non-specific phosphodiesterase inhibitor) (Sigma, St. Louis, MO). […] For the negative control, HCM are incubated in treatment buffer (vehicle) only. After treatment for 10 minutes, all cells are washed with phosphate buffered solution (PBS) once, lysed with 0.1 M HCl, and sonicated for 10 min.

H-RALLTAPRSLRRSSCFGHKIDRINHVSNLGCNSFRYRITAREDKQGWA-OH (disulfide 15-31) [CRRL 191]
resistance to degradation by neprilysin compared to ANP ([1]; FIG. 3): highly resistant
original bioactivity retained ([1]; after 30 minutes of neprilysin degradation): about 90%
original bioactivity retained ([1]; after 6 hours of neprilysin degradation): 84%
binding for the GC-A receptor compared to ANP and MANP [2]: greater binding
GC-A activation / cGMP production up to about 30 minutes (human GC-A): increases in cGMP production at the same rate
GC-A activation / cGMP production after 30 minutes (human GC-A; up to 6 hours): continues to increase up to at least 6 hours
cGMP production compared to MANP or CRRL 101 ([3]; 10^−9 M to 10^−6 M, FIG. 5): great levels of cGMP production than MANP or CRRL 101
cGMP production compared to ANP ([3]; 10^−10 M to 10^−6 M, 10 min, FIG. 4): greater cGMP production than ANP
